Experimental data taken from PubChem BioAssay (NCI).
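The compound was tested at five concentrations on cells cultured in 96-well plates, with a 48-hour exposure period. GI50 is the concentration that inhibits growth by half. TGI: concentration producing complete growth inhibition.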

How the values were obtained:
Test in all cases: inhibition of tumour cell growth, NCI panel, 48 h
SW-620 colon = tested on: SW-620 colon
MCF7 breast = tested on: MCF7 breast
SR leukemia = tested on: SR leukemia
HT29 colon = tested on: HT29 colon
M14 melanoma = tested on: M14 melanoma
SK-OV-3 ovarian = tested on: SK-OV-3 ovarian
KM12 colon = tested on: KM12 colon
A498 renal = tested on: A498 renal
BT-549 breast = tested on: BT-549 breast
COLO 205 colon = tested on: COLO 205 colon

SMILES: CCOC(=O)[C@@H](C)C[C@H](Cc1ccccc1)NC(=O)c1csc([C@@H](C[C@H](C(C)C)N(C)C(=O)[C@@H](NC(=O)[C@H]2CCCCN2C)C(C)(C)C)OC(C)=O)n1
- GI50 (SW-620 colon): < 0.00167 µM
- TGI (SW-620 colon): > 16.7 µM
- GI50 (MCF7 breast): < 0.00167 µM
- TGI (MCF7 breast): > 16.7 µM
- GI50 (SR leukemia): < 0.00167 µM
- TGI (SR leukemia): > 16.7 µM
- GI50 (HT29 colon): < 0.00167 µM
- TGI (HT29 colon): > 7.52 µM
- GI50 (M14 melanoma): < 0.00167 µM
- TGI (M14 melanoma): 0.0294 µM
- GI50 (SK-OV-3 ovarian): < 0.00167 µM
- TGI (SK-OV-3 ovarian): > 16.7 µM
- GI50 (KM12 colon): < 0.00167 µM
- TGI (KM12 colon): 0.215 µM
- GI50 (A498 renal): < 0.00167 µM
- TGI (A498 renal): < 0.00167 µM
- GI50 (BT-549 breast): < 0.00167 µM
- TGI (BT-549 breast): 0.00961 µM
- GI50 (COLO 205 colon): < 0.00167 µM
- TGI (COLO 205 colon): 0.00432 µM

SMILES: COc1ccc2c(c1)[C@@]13CCN4CC5=CCO[C@H]6CC(=O)N2[C@H]1[C@H]6[C@H]5C[C@H]43
- TGI (SW-620 colon): > 100 µM
- TGI (MCF7 breast): > 100 µM
- TGI (SR leukemia): > 100 µM
- TGI (HT29 colon): > 100 µM
- TGI (M14 melanoma): > 100 µM
- TGI (SK-OV-3 ovarian): > 100 µM
- TGI (KM12 colon): > 100 µM
- TGI (A498 renal): > 100 µM
- TGI (BT-549 breast): > 100 µM
- TGI (COLO 205 colon): > 100 µM

SMILES: COc1ccc(C2C(C#N)=C(N)OC3=C2CCCc2ccc(F)cc23)cc1OC (centres undefined)
- GI50 (SW-620 colon): 12.5 µM
- TGI (SW-620 colon): 30.3 µM
- GI50 (MCF7 breast): 28.1 µM
- TGI (MCF7 breast): > 77.7 µM
- GI50 (SR leukemia): > 100 µM
- TGI (SR leukemia): > 100 µM
- GI50 (HT29 colon): 29.6 µM
- TGI (HT29 colon): > 72.4 µM
- GI50 (M14 melanoma): 19.9 µM
- TGI (M14 melanoma): 41.8 µM
- GI50 (SK-OV-3 ovarian): 25.4 µM
- TGI (SK-OV-3 ovarian): 57.7 µM
- GI50 (KM12 colon): 19.1 µM
- TGI (KM12 colon): 43.6 µM
- GI50 (A498 renal): 4.22 µM
- TGI (A498 renal): 21.9 µM
- GI50 (BT-549 breast): 19.4 µM
- TGI (BT-549 breast): 42.5 µM
- GI50 (COLO 205 colon): 38.5 µM
- TGI (COLO 205 colon): > 95.8 µM

SMILES: COc1cc(-c2cn(C)c(=O)c(C)c2C)cc(OC)c1CN1CC[C@H](N2CCN(c3ccc(N[C@H]4CCC(=O)NC4=O)cc3F)CC2)C(F)(F)C1
- GI50 (SW-620 colon): 17.9 µM
- TGI (SW-620 colon): 38 µM
- GI50 (MCF7 breast): 3.16 µM
- TGI (MCF7 breast): 29.6 µM
- GI50 (SR leukemia): 6.7 µM
- TGI (SR leukemia): 51 µM
- GI50 (HT29 colon): 11.4 µM
- TGI (HT29 colon): 27.2 µM
- GI50 (M14 melanoma): 12.2 µM
- TGI (M14 melanoma): 27.7 µM
- GI50 (SK-OV-3 ovarian): 18.4 µM
- TGI (SK-OV-3 ovarian): 36.2 µM
- GI50 (KM12 colon): 15.1 µM
- TGI (KM12 colon): 30.2 µM
- GI50 (A498 renal): 13.8 µM
- TGI (A498 renal): 27.2 µM
- GI50 (BT-549 breast): 12.6 µM
- TGI (BT-549 breast): 28.3 µM
- GI50 (COLO 205 colon): 14.4 µM
- TGI (COLO 205 colon): 37.4 µM

SMILES: CC(C)(C)c1nc2c(o1)C(=Nc1ccc(F)cc1)c1ccccc1C2=O
- TGI (SW-620 colon): 30 µM
- TGI (MCF7 breast): 29.1 µM
- TGI (SR leukemia): > 100 µM
- TGI (HT29 colon): 41.6 µM
- TGI (M14 melanoma): 9.35 µM
- TGI (SK-OV-3 ovarian): 45.9 µM
- TGI (KM12 colon): 52.5 µM
- TGI (A498 renal): 50.9 µM
- TGI (BT-549 breast): 12.9 µM
- TGI (COLO 205 colon): 30.7 µM

SMILES: Nc1ccc(SC23CC4CC(CC(C4)C2)C3)cc1
- TGI (SW-620 colon): > 100 µM
- TGI (MCF7 breast): > 100 µM
- TGI (SR leukemia): > 100 µM
- TGI (HT29 colon): > 100 µM
- TGI (M14 melanoma): > 100 µM
- TGI (SK-OV-3 ovarian): > 100 µM
- TGI (KM12 colon): > 100 µM
- TGI (A498 renal): > 100 µM
- TGI (BT-549 breast): > 100 µM
- TGI (COLO 205 colon): > 100 µM

SMILES: Oc1c(Br)cc(CN(Cc2cc(Br)c(O)c(Br)c2)C2CCCCC2)cc1Br
- TGI (SW-620 colon): > 100 µM
- TGI (MCF7 breast): > 100 µM
- TGI (SR leukemia): > 100 µM
- TGI (HT29 colon): > 100 µM
- TGI (M14 melanoma): > 100 µM
- TGI (SK-OV-3 ovarian): > 100 µM
- TGI (KM12 colon): > 100 µM
- TGI (A498 renal): > 100 µM
- TGI (BT-549 breast): > 100 µM
- TGI (COLO 205 colon): > 100 µM

SMILES: C=CCOc1c(Br)cc(Br)cc1Br
- GI50 (SW-620 colon): 22.6 µM
- TGI (SW-620 colon): 89.4 µM
- GI50 (MCF7 breast): 9.32 µM
- TGI (MCF7 breast): > 100 µM
- GI50 (SR leukemia): 4.84 µM
- TGI (SR leukemia): > 100 µM
- GI50 (HT29 colon): 33 µM
- TGI (HT29 colon): > 100 µM
- GI50 (M14 melanoma): 19.6 µM
- TGI (M14 melanoma): > 100 µM
- GI50 (SK-OV-3 ovarian): 55.5 µM
- TGI (SK-OV-3 ovarian): > 100 µM
- GI50 (KM12 colon): 14.1 µM
- TGI (KM12 colon): 45.7 µM
- GI50 (A498 renal): 8.49 µM
- TGI (A498 renal): > 100 µM
- GI50 (BT-549 breast): 35.5 µM
- TGI (BT-549 breast): > 100 µM
- GI50 (COLO 205 colon): 22.2 µM
- TGI (COLO 205 colon): 56.9 µM

SMILES: CNC(=O)c1cc(Oc2ccc(NC(=O)Nc3ccc(Cl)c(OC(F)(F)F)c3)c(F)c2)ccn1
- GI50 (SW-620 colon): 2.13 µM
- TGI (SW-620 colon): > 33.2 µM
- GI50 (MCF7 breast): 1.12 µM
- TGI (MCF7 breast): 7.17 µM
- GI50 (SR leukemia): 1.49 µM
- TGI (SR leukemia): 7.99 µM
- GI50 (HT29 colon): 1.17 µM
- TGI (HT29 colon): 13.5 µM
- GI50 (M14 melanoma): 1.02 µM
- TGI (M14 melanoma): 5.38 µM
- GI50 (SK-OV-3 ovarian): 4.32 µM
- TGI (SK-OV-3 ovarian): > 33.2 µM
- GI50 (KM12 colon): 1.17 µM
- TGI (KM12 colon): 9.09 µM
- GI50 (A498 renal): 2.66 µM
- TGI (A498 renal): 11.4 µM
- GI50 (BT-549 breast): 3.17 µM
- TGI (BT-549 breast): 14 µM
- GI50 (COLO 205 colon): 1.14 µM
- TGI (COLO 205 colon): 7.65 µM

SMILES: Cc1noc(C)c1-c1ccc2[nH]c(=O)n3c2c1OC[C@@H]3c1ccccn1
- GI50 (SW-620 colon): > 100 µM
- TGI (SW-620 colon): > 100 µM
- GI50 (MCF7 breast): 0.329 µM
- TGI (MCF7 breast): > 100 µM
- GI50 (SR leukemia): 0.267 µM
- TGI (SR leukemia): > 100 µM
- GI50 (HT29 colon): 0.415 µM
- TGI (HT29 colon): > 100 µM
- GI50 (M14 melanoma): 0.803 µM
- TGI (M14 melanoma): > 100 µM
- GI50 (SK-OV-3 ovarian): 0.634 µM
- TGI (SK-OV-3 ovarian): > 100 µM
- GI50 (KM12 colon): > 27.8 µM
- TGI (KM12 colon): > 100 µM
- TGI (A498 renal): 6.25 µM
- GI50 (BT-549 breast): 15.6 µM
- TGI (BT-549 breast): > 100 µM
- GI50 (COLO 205 colon): 0.433 µM
- TGI (COLO 205 colon): > 100 µM

SMILES: COc1ccc(NC2=C(Br)C(=O)C(C)=C(C)C2=O)cc1
- GI50 (SW-620 colon): 2.07 µM
- TGI (SW-620 colon): 4.54 µM
- GI50 (MCF7 breast): 1.78 µM
- TGI (MCF7 breast): 3.77 µM
- GI50 (SR leukemia): 3.21 µM
- TGI (SR leukemia): > 100 µM
- GI50 (HT29 colon): 27.4 µM
- TGI (HT29 colon): 79.6 µM
- GI50 (M14 melanoma): 11.7 µM
- TGI (M14 melanoma): 24.8 µM
- GI50 (SK-OV-3 ovarian): 12.3 µM
- TGI (SK-OV-3 ovarian): 26.1 µM
- GI50 (KM12 colon): 5.02 µM
- TGI (KM12 colon): 19 µM
- GI50 (A498 renal): 1.62 µM
- TGI (A498 renal): 33.6 µM
- GI50 (BT-549 breast): 11.8 µM
- TGI (BT-549 breast): 24.4 µM
- GI50 (COLO 205 colon): 21.3 µM
- TGI (COLO 205 colon): 51 µM
